Experimental data taken from patent US10045984B2, “Combination therapy” (priority 2008, dated 2018).

Tests used:
[1] = system: Influenza A, B and Rhino virus; assay: Group B randomized double blind trial in uncomplicated viral upper respiratory tract infection, with case reports; type: in vivo, human; details: for clinical state at day 5 after starting treatment: n=5 per group; for clinical state: influenza type B
Description: RT-PCR (reverse transcriptase-PCR) was used for subtyping and for detection of rhinovirus. RT-PCR is done on swabs. In the case of the patient groups, RT-PCR determined the presence of subtypes influenza H3, rhino virus and RSV. IFA and RT-PCR was repeated after treatment to ensure viral eradication from the patient.
Group B patients included 20 patients, aged 19 years to 57 years, 14 men and 6 women, with influenza but uncomplicated upper airway infection. […] The viruses identified were Influenza A, B and Rhino virus.
On day 3-5 of the illness (influenza) they received either a zinc/trimethoprim mixture, zinc, trimethoprim alone or vitamin C alone in a randomized double blind trial. The subjects were reviewed at 2 and 5 days after starting treatment.
The Tri-Z dose ranged between 100 mg (82 mg Tri and 18 mg zinc) to 200 mg (164 mg Tri and 36 mg zinc) twice daily. Trimethoprim only was administered in quantities of between 100 mg and 200 mg twice daily. Zinc only was administered in quantities of 50 mg three times daily. Vitamin C was administered in 1 g quantities twice daily.
Points on the graph shown in FIG. 6 are group means (for n=5) which highlights the difference in illness duration. […] Repeat IFA and RT-PCR tests were negative by day 2.
(i) person presented with headache, no photophobia, body ache, feeling tired and lethargic, blocked runny nose, dry throat and feeling hot for the last 4 days. Temperature was 38.5 C, respiratory rate 18/min, heart rate 75/min regular, BP 115/70 mmHg, clear nasal discharge, blood shot eyes, clear throat. Chest was clear with normal breath sounds. No cervical lymph nodes.
Nasal aspirate and throat swab was taken for virus and bacteria. […] Cultures were negative for bacterial growth at 48 and 72 hours.
They were commenced on the zinc/trimethoprim mixture twice daily (initial dose 200 mg of trimethoprim and 100 mg zinc sulphate for first dose then reduced to 100 mg of trimethoprim and 50 mg of zinc sulphate given simultaneously on an empty stomach) for 5 days.
(ii) person presented with body ache, generally feeling tired, blocked runny nose, sore eyes, dry throat, headache and feeling hot for the last 4 days. Their temperature was 38 C. Their chest was clear with normal breath sounds. Respiratory rate 16/min, heart rate 84/min regular, BP 135/78 mmhg. Nasal aspirate and throat swabs was taken for virus and bacteria.
Bacterial culture at 48 and 72 hours were negative.
(iii) person presented with feeling hot, blocked nose that is runny, headache, body ache, dry cough, sore eyes for last 4 days.
Temperature was 38.5 C, heart rate 60/min, respiratory rate 16/min, BP 120/70 mmHg, chest clear with normal breath sounds, no lymphadenopathy, conjunctival congestion, throat clear.
Nasal aspirate and throat swab were taken for virus and bacteria. They were started on Trimethoprim 200 mg twice daily for 5 days.

viral replication = details: cited from earlier work
[2] = case (ii) person, day 5 after treatment

Compound: [Zn] [zinc]
- clinical state at day 5 after starting treatment [1]: not back to normal
- concentration in a subject that affects viral replication (viral replication): 0.05 mMolar

Compound: COc1cc(Cc2cnc(N)nc2N)cc(OC)c1OC [trimethoprim, 5-(3,4,5-trimethoxybenzyl)pyrimidine-2,4-diamine]
- nasal aspirate viral test ([1]; case (iii) person, day 5 of treatment): influenza type B
- temperature ([1]; case (iii) person, day 5 of treatment, 38.5 C before): 37.8 C
- clinical state ([1]; case (iii) person, 200 mg twice daily, 2 days later): the same
- day of the illness when recovery started ([1]; case (iii) person, well enough to go back to work): 14 days
- clinical state at day 5 after starting treatment [1]: not back to normal

Compound: O=S(=O)([O-])[O-].[Zn+2] [zinc sulphate]
- repeat viral test ([1]; case (ii) person, 2 days after treatment): influenza type B
- control of symptoms [1, 2]: ineffective
- nasal aspirate viral test [1, 2]: influenza type B
- clinical state ([1]; case (ii) person, 100 mg twice daily, 2 days after treatment): the same
- day of the illness of return to work ([1]; case (ii) person, still feeling unwell): 14 days

Compound: O=C1O[C@H]([C@@H](O)CO)C(O)=C1O [vitamin C]
- clinical state at day 5 after starting treatment [1]: not back to normal
